Tests used:
Format in all cases: in vivo
Setaria viridis = experiment: Herbicidal activity by field foliage treatment (Test example 3); settings: 1000 g effective component per hectare, day 14 after the treatment;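 also: index 0 to 10 in 10% steps of herbicidal effect with 10 meaning complete death and 0 below 10%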
Description: Test example 3 Test for Determining Herbicidal Activity by Field Foliage Treatment A 80 cm^2 wide plastic pot was filled with a field soil and seeds of each of Indian millet and A. retroflexus were sowed and then incubated for 2 weeks in a green house. The wettable powder produced with reference to the Formulation example 1 was diluted water, and applied from the air to entire body of the plant as foliage treatment by using a small sprayer in an amount of 1000 liters per hectare so that the effective component is 1000 g per hectare. After that, the plants were cultivated in a greenhouse, and on day 14 after the treatment, evaluation was made by the criteria described in Table 72 for determining the herbicidal effects.

Indian millet [1] = experiment: Herbicidal activity by field soil treatment (Test example 2); parameters: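 index 0 to 10 in 10% steps of herbicidal effect with 10 meaning complete death and 0 below 10%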; settings: 1000 g effective component per hectare, day 21 after the treatment
Summary of the method: (§1)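 Pre-emergence soil spray: wettable-powder formulation in water at 1000 g active ingredient per hectare (1000 L/ha) onto freshly sown, soil-covered seeds in field soil. Scoring of herbicidal effect by defined criteria 21 days post-treatment, plants kept in a greenhouse.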

A. retroflexus [2] = experiment: as above; parameters: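 index 0 to 10 in 10% steps of herbicidal effect with 10 meaning complete death and 0 below 10%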; settings: 1000 g effective component per hectare, day 21 after the treatment
Summary of the method: as §1

Echinochloa crus-galli [3] = experiment: as above; parameters: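 index 0 to 10 in 10% steps of herbicidal effect with 10 meaning complete death and 0 below 10%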; settings: 1000 g effective component per hectare, day 21 after the treatment
Summary of the method: as §1

Indian millet [4] = experiment: Herbicidal activity by field foliage treatment (Test example 3); parameters: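 index 0 to 10 in 10% steps of herbicidal effect with 10 meaning complete death and 0 below 10%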; settings: 1000 g effective component per hectare, day 14 after the treatment
Summary of the method: (§2)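 Scoring of herbicidal effect by set criteria took place 14 days post-spray. Plants had been raised 2 weeks in field soil under glass before whole-plant foliar application of diluted wettable powder (1000 g active component/ha, spray volume 1000 L/ha).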

A. retroflexus [5] = experiment: as above; parameters: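 index 0 to 10 in 10% steps of herbicidal effect with 10 meaning complete death and 0 below 10%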; settings: 1000 g effective component per hectare, day 14 after the treatment
Summary of the method: as §2

Echinochloa crus-galli [6] = experiment: as above; parameters: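 index 0 to 10 in 10% steps of herbicidal effect with 10 meaning complete death and 0 below 10%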; settings: 1000 g effective component per hectare, day 14 after the treatment
Summary of the method: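 Herbicidal effect was rated on day 14 following a foliar spray of 1000 g active ingredient per hectare, applied as water-diluted wettable powder at 1000 L/ha. Plants had been raised for 2 weeks in field soil under greenhouse conditions before spraying.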

Scirpus juncoides Rocxb. = experiment: Herbicidal activity by paddy field soil treatment (Test Example 1); parameters: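 index 0 to 10 in 10% steps of herbicidal effect with 10 meaning complete death and 0 below 10%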; settings: applied on water surface, 1000 g of effective component per hectare, day 21 after the treatment
Summary of the method: (§3)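 Pre-emergence water-surface application one day after sowing into flooded (3 cm) paddy soil, dose 1000 g effective component per hectare from a diluted wettable powder. Plants kept in greenhouse and rated for herbicidal effect 21 days post-treatment.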

Echinochloa oryzicola = experiment: as above; parameters: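 index 0 to 10 in 10% steps of herbicidal effect with 10 meaning complete death and 0 below 10%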; settings: 1000 g of effective component per hectare, evaluated on day 21 after the treatment, criteria of Table 72
Summary of the method: as §3

Monochoria vaginalis = experiment: as above; parameters: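 index 0 to 10 in 10% steps of herbicidal effect with 10 meaning complete death and 0 below 10%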; settings: 1000 g of effective component per hectare, evaluated on day 21 after the treatment, criteria of Table 72
Summary of the method: as §3

Row | SMILES | herbicidal effect index, Setaria viridis (Setaria viridis) | herbicidal effect index, Abutilon theophrasti (Indian millet [1]) | herbicidal effect index, Amaranthus retroflexus (A. retroflexus [2]) | herbicidal effect index, Echinochloa crus-galli (Echinochloa crus-galli [3]) | herbicidal effect index, Abutilon theophrasti (Indian millet [4]) | herbicidal effect index, Amaranthus retroflexus (A. retroflexus [5]) | herbicidal effect index, Echinochloa crus-galli (Echinochloa crus-galli [6]) | herbicidal effect index, S. juncoides Rocxb. (Scirpus juncoides Rocxb.) | Herbicidal effects index number, Echinochloa oryzicola (Echinochloa oryzicola) | Herbicidal effects index number, Monochoria vaginalis (Monochoria vaginalis)
1 | COc1c(F)cc(-n2c(=O)c(C(=O)C3=C(O)CCCC3=O)nn(C)c2=O)cc1F [Compound I-167] | 8 | 10 | 10 | 8 | 10 | 10 | 10 | – | – | –
2 | CC(CCn1c(=O)c(C(=O)C2=C(O)CCCC2=O)nn(C)c1=O)=C(F)F [I-27] | 6 | 10 | 10 | 10 | 9 | 9 | 9 | 10 | 10 | 10
3 | CSCn1c(=O)c(C(=O)C2=C(O)CCCC2=O)nn(C)c1=O [I-43] | 8 | – | 10 | 10 | 9 | 10 | 8 | 10 | 10 | 10
4 | COc1ccccc1-n1c(=O)c(C(=O)C2=C(O)CCCC2=O)nn(C)c1=O [I-60] | 9 | 10 | 10 | 10 | 10 | 10 | 10 | 10 | 10 | 10
5 | Cn1nc(C(=O)C2=C(O)CCCC2=O)c(=O)n(-c2ccc(F)cc2F)c1=O [I-78] | 10 | 10 | 10 | 10 | 10 | 10 | 10 | 10 | 10 | 10
6 | Cc1ccc(-n2c(=O)c(C(=O)C3=C(O)CCCC3=O)nn(C)c2=O)c(C)c1 [I-90] | 7 | 10 | 10 | 8 | 9 | 10 | 8 | 10 | 9 | 10
7 | Cc1ccc(Cl)cc1-n1c(=O)c(C(=O)C2=C(O)CCCC2=O)nn(C)c1=O [I-138] | 8 | 9 | 10 | 9 | 9 | 10 | 8 | 10 | 10 | 10
8 | Cn1nc(C(=O)C2=C(O)CCCC2=O)c(=O)n(-c2ccc(F)cn2)c1=O [I-184] | 8 | 10 | 10 | 8 | 9 | 10 | 10 | 10 | 10 | 10
